{"source": "ChEMBL document CHEMBL5154810", "about": "“Development of Potent Immune Modulators Targeting Stimulator of Interferon Genes Receptor” (J Med Chem, 2022)", "key": {"[1]": {"target": "T1, Stimulator of interferon genes protein (Mus musculus) (UniProt Q3TBT3)", "T1 sequence (whole entry)": "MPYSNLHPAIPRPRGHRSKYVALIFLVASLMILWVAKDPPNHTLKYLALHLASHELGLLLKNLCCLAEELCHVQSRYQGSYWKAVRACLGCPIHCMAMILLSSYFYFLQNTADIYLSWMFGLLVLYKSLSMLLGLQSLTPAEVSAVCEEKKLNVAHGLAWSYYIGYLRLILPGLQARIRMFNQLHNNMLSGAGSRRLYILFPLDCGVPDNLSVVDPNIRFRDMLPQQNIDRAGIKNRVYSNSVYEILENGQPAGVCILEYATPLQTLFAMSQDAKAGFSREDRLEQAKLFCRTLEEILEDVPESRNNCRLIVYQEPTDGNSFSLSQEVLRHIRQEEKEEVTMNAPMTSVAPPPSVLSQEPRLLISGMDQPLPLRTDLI", "experiment": "Activation of STING mediated immune response in mouse RAW264.7 cells assessed as induction of IFNbeta secretion measured after 24 hrs by ELISA", "assay_type": "cell-based", "settings": "filed as activator, dose 0.32-5000 nM, DDE = dose-dependent effect"}, "[2]": {"target": "T2, Stimulator of interferon genes protein (Homo sapiens, UniProt Q86WV6)", "T2 sequence (Q86WV6 whole entry)": "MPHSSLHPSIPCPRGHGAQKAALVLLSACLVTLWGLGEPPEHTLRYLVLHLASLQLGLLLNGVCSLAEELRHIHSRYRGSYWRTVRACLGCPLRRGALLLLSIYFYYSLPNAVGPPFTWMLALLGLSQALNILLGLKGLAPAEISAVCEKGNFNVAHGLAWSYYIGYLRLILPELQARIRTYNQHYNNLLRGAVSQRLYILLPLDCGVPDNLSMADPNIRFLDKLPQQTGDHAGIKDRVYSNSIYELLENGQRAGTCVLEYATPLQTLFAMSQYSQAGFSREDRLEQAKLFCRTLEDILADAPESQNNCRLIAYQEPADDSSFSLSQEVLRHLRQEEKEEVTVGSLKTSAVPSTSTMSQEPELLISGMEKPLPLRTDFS", "experiment": "Activation of STING pathway in human THP1-cells assessed as increase in STING phosphorylation at 2 nM incubated for 6 hrs by Western blotting analysis", "assay_type": "cell-based", "settings": "THP-1, filed as activator"}, "Cytochrome P450 2D6": {"target": "Cytochrome P450 2D6 (Homo sapiens, UniProt P10635)", "sequence (P10635 whole entry)": "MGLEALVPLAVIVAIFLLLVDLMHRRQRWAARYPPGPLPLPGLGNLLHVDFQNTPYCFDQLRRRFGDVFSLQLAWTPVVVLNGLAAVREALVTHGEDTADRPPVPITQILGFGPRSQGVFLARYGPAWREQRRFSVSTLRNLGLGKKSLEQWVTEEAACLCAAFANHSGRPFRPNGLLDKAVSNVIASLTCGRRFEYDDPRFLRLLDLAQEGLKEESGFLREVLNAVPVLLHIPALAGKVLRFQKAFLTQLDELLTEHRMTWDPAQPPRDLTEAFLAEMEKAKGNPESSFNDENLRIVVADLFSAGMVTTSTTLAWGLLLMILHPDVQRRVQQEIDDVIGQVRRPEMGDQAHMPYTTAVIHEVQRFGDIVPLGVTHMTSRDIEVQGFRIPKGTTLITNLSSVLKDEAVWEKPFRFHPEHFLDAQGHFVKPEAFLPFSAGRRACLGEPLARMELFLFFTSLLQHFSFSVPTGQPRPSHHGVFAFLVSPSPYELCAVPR", "experiment": "Inhibition of CYP2D6 in human liver microsomes using dextromethorphan as cocktail probe substrate preincubated for 5 mins followed by NADPH addition and meaured after 30 mins by HPLC-MS/MS analysis", "assay_type": "ADME, Microsome"}, "[3]": {"target": "T2, Stimulator of interferon genes protein", "experiment": "Binding affinity to STING in human THP-1 cells assessed as thermal stabilization at 48 to 55 degC at 100 nM incubated for 4 hrs by western blotting based CETSA assay", "assay_type": "cell-based", "settings": "filed as activator"}, "THP-1 [4]": {"system": "THP-1", "experiment": "Upregulation of IFITM1 in human THP-1 cells at 100 nM measured after 6 to 18 hrs by RT-PCR analysis", "assay_type": "functional, cell-based", "settings": "time 6-18 hrs"}, "CT26 [5]": {"system": "CT26", "experiment": "Antitumor activity against CT26 cells injected in BALB/c syngenic mouse model assessed as tumor growth inhibition at 1.5 mg/kg, iv measured after 17 days", "assay_type": "functional", "settings": "CT26, 408 h, time 17 day, read-out: TGI"}, "CT26 [6]": {"system": "CT26", "experiment": "Antitumor activity against CT26 cells injected in BALB/c syngenic mouse model assessed as reduction in tumor growth at 0.015 to 1.5 mg/kg, iv measured every 2 to 3 days for 17 days", "assay_type": "functional, organism-based", "settings": "dose 0.015-1.5 mg/kg, time 17.0 day"}, "THP-1 [7]": {"system": "THP-1", "experiment": "Upregulation of IFIT3 in human THP-1 cells at 100 nM measured after 6 to 18 hrs by RT-PCR analysis", "assay_type": "functional, cell-based", "settings": "time 6-18 hrs"}, "[8]": {"experiment": "Volume of distribution at steady state in BALB/c mouse at 3 mg/kg, iv by LC-MS/MS analysis", "assay_type": "ADME, organism-based", "settings": "in vivo, read-out: Vdss"}, "[9]": {"experiment": "Stability in mouse plasma assessed as parent compound remaining at 5 uM measured after 4 hrs by HPLC-MS/MS analysis", "assay_type": "ADME, cell-free", "settings": "read-out: Stability"}, "Cytochrome P450 2C19": {"target": "Cytochrome P450 2C19 (Homo sapiens, UniProt P33261)", "sequence (P33261 whole entry)": "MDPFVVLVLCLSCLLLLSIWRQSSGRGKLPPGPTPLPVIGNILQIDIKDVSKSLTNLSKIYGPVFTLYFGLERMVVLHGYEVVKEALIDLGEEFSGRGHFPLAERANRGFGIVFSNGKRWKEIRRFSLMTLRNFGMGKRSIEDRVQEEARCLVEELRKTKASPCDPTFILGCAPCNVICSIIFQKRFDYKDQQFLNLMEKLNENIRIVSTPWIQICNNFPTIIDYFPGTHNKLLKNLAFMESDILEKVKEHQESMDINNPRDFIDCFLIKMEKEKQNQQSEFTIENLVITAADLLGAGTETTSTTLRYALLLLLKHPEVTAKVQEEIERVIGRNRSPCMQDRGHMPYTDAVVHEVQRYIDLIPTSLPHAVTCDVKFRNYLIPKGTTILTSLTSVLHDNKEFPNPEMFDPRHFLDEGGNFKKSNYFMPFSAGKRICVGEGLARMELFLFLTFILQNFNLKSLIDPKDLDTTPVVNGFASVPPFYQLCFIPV", "experiment": "Inhibition of CYP2C19 in human liver microsomes using S-mephenytoin as cocktail probe substrate preincubated for 5 mins followed by NADPH addition and measured after 30 mins by HPLC-MS/MS analysis", "assay_type": "ADME, Microsome"}, "THP-1 [10]": {"system": "THP-1", "experiment": "[…] of IFNB in human THP-1 cells at 100 nM measured after 18 hrs by RT-PCR analysis", "assay_type": "functional, cell-based"}, "[11]": {"experiment": "Solubility of the compound in DMSO at 50 to 100 uM incubated for 72 hrs", "assay_type": "physicochemical", "settings": "dose 50-100 µM"}, "THP-1 [12]": {"system": "THP-1", "experiment": "Upregulation of ISG15 in human THP-1 cells at 100 nM measured after 6 to 18 hrs by RT-PCR analysis", "assay_type": "functional, cell-based", "settings": "time 6-18 hrs"}, "Cytochrome P450 1A2": {"target": "T3, Cytochrome P450 1A2 (Homo sapiens, UniProt P05177)", "T3 sequence (P05177 whole entry)": "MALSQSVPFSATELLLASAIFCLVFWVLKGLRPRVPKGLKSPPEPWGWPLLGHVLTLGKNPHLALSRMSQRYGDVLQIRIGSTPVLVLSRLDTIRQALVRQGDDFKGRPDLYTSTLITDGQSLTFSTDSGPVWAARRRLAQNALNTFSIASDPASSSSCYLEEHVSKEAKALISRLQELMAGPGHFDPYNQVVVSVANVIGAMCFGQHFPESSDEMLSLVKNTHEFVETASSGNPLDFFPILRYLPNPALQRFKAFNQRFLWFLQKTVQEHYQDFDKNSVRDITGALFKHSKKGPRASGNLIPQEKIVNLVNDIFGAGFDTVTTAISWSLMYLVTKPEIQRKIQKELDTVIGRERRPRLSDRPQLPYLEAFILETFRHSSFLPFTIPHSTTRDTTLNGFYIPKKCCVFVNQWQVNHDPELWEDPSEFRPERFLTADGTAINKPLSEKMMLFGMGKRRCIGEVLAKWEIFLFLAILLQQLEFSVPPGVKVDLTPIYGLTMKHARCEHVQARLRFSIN", "experiment": "Inhibition of CYP1A2 in human liver microsomes using phenacetin as cocktail probe substrate preincubated for 5 mins followed by NADPH addition and measured after 30 mins by HPLC-MS/MS analysis", "assay_type": "ADME, Microsome"}, "Cytochrome P450 2C9": {"target": "Cytochrome P450 2C9 (Homo sapiens, UniProt P11712)", "sequence (P11712 whole entry)": "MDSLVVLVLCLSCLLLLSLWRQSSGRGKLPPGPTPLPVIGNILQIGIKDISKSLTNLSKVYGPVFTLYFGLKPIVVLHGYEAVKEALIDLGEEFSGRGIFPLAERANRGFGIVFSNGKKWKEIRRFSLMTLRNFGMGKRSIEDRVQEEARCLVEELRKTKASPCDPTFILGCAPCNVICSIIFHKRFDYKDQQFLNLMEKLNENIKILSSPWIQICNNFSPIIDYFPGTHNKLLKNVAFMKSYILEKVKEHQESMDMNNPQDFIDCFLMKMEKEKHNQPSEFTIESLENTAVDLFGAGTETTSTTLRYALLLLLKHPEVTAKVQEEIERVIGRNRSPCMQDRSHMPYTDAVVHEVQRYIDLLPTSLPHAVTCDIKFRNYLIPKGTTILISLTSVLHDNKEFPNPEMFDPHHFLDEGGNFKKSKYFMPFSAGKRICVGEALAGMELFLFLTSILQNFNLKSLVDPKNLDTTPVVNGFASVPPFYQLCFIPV", "experiment": "Inhibition of CYP2C9 in human liver microsomes tolbutamide as cocktail probe substrate preincubated for 5 mins followed by NADPH addition and measured after 30 mins by HPLC-MS/MS analysis", "assay_type": "ADME, Microsome"}, "[13]": {"experiment": "Terminal half life in BALB/c mouse at 3 mg/kg, iv by LC-MS/MS analysis", "assay_type": "ADME, organism-based", "settings": "in vivo, read-out: beta t1/2 (converted)"}}, "note": "Activity calls are given as the source filed them. The calls are words filed in the database; no cut-off is given here."}
{"smiles": "CCn1nc(C)cc1C(=O)Nc1nc2cc(C(N)=O)cc(OC)c2n1C/C=C/Cn1c(NC(=O)c2cc(C)nn2CC)nc2cc(C(N)=O)cc(OCCCNC(=O)OC(C)(C)C)c21", "values": [{"measurement": "Activity", "setting": "[1]", "value": "Dde"}, {"measurement": "Activity", "setting": "[2]", "value": "Active"}, {"measurement": "IC50", "setting": "Cytochrome P450 2D6", "value": "> 100", "unit": "µM"}, {"measurement": "Activity", "setting": "[3]", "value": "Active"}, {"measurement": "Activity", "setting": "THP-1 [4]", "value": "Active"}, {"measurement": "inhibition in vivo at 1.5 mg/kg", "setting": "CT26 [5]", "value": 57, "unit": "%"}, {"measurement": "Activity", "setting": "CT26 [6]", "value": "Active"}, {"measurement": "Activity", "setting": "THP-1 [7]", "value": "Active"}, {"measurement": "Vd", "setting": "[8]", "value": 17.7, "unit": "L/kg"}, {"measurement": "remaining at 4 h, 5 µM", "setting": "[9]", "value": "> 99", "unit": "%"}, {"measurement": "IC50", "setting": "Cytochrome P450 2C19", "value": "> 100", "unit": "µM"}, {"measurement": "Activity", "setting": "THP-1 [10]", "value": "Active"}, {"measurement": "solubility", "setting": "[11]", "value": "Soluble"}, {"measurement": "Activity", "setting": "THP-1 [12]", "value": "Active"}, {"measurement": "IC50", "setting": "Cytochrome P450 1A2", "value": "> 100", "unit": "µM"}, {"measurement": "IC50", "setting": "Cytochrome P450 2C9", "value": "> 100", "unit": "µM"}, {"measurement": "half-life", "setting": "[13]", "value": 10.5, "unit": "h"}]}
